This assay concerns the target recombinant human HPK1 (Homo sapiens (Human), UniProt Q92918). As to the kind of experiment: HPK1 kinase assay (ADP-Glo). It is filed as biochemical. Conditions: 25 μM ATP, MBP substrate. The essentials:
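Activity was read as ADP formed, detected by ADP-Glo luminescence after the reaction of 5 ng recombinant human HPK1 with MBP and ATP (stocks 0.5 μg/μl and 25 μM) for 40 min at 30 °C. Buffer was Tris pH 7.5 with MgCl2, BSA and DTT, with compound in 0.5% DMSO. IC50 came from inhibition curves.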
(In general: In ADP-Glo the light output rises with the ADP produced.)

The values below come from patent publication US11649255B2, “Indazoles as hematopoietic progenitor kinase 1 (HPK1) inhibitors and methods using same” (1st Biotherapeutics, Inc., priority 2020, dated 2023).

Chain of recombinant human HPK1 (Q92918 whole entry): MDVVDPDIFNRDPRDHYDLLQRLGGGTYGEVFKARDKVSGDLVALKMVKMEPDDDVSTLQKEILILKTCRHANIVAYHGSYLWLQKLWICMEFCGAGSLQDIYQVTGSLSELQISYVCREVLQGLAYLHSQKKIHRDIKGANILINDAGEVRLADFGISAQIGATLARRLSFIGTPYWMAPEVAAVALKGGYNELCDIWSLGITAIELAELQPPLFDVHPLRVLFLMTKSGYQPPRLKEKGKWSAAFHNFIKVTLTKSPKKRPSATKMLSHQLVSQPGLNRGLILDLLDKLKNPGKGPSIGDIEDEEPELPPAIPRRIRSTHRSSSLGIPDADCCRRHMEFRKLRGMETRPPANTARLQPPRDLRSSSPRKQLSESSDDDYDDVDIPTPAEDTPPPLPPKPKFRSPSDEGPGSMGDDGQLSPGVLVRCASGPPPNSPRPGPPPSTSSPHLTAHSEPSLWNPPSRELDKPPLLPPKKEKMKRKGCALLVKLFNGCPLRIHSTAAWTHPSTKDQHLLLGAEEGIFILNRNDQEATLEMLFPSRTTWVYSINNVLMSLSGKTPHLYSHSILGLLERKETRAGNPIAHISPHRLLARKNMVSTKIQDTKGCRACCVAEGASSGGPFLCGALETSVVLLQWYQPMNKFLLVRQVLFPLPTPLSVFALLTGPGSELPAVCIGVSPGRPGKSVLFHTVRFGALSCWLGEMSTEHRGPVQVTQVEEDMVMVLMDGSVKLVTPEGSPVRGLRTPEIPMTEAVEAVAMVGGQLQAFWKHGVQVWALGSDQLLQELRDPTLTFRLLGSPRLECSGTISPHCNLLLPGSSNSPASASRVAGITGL

As a reminder, the IC50 is the concentration that inhibits the measured activity by half. As for `O=C(Nc1cn2cc(-c3c(Cl)c(F)c(C4CCCC4O)c4[nH]ncc34)ccc2n1)[C@@H]1C[C@@H]1F` (stereo partly drawn) [Example 410, (1S,2S)-N-(6-(5-chloro-6-fluoro-7-(2-hydroxycyclopentyl)-1H-indazol-4-yl)imidazo[1,2-a]pyridin-2-yl)-2-fluorocyclopropane-1-carboxamide], the IC50 is under 100 nM.

Turning to `CC(=S)Nc1c(F)c(Cl)c(-c2ccc3nc(NC(=O)[C@@H]4C[C@@H]4F)cn3c2)c2cn[nH]c12` [Example 411, (1S,2S)-N-(6-(5-chloro-7-ethanethioamido-6-fluoro-1H-indazol-4-yl)imidazo[1,2-a]pyridin-2-yl)-2-fluorocyclopropane-1-carboxamide], the 50% inhibitory concentration (IC50) is under 100 nM. For `CC(=O)N(C)C(C)c1c(F)c(Cl)c(-c2ccc3nc(NC(=O)[C@@H]4C[C@@H]4F)cn3c2)c2cn[nH]c12` (stereo partly drawn) [Example 412, (1S,2S)-N-(6-(5-chloro-6-fluoro-7-(1-(N-methylacetamido)ethyl)-1H-indazol-4-yl)imidazo[1,2-a]pyridin-2-yl)-2-fluorocyclopropane-1-carboxamide], the IC50 is under 100 nM. Turning to `C[C@H](c1c(F)c(Cl)c(-c2ccc3nc(NC(=O)[C@@H]4C[C@@H]4F)cn3c2)c2cn[nH]c12)n1cnnn1` [Example 413], the IC50 is under 100 nM. The figure for `C[C@@H](c1c(F)c(Cl)c(-c2ccc3nc(NC(=O)[C@@H]4C[C@@H]4F)cn3c2)c2cn[nH]c12)n1cnnn1` [Example 414, (1S,2S)-N-(6-(7-((S)-1-(1H-tetrazol-1-yl)ethyl)-5-chloro-6-fluoro-1H-indazol-4-yl)imidazo[1,2-a]pyridin-2-yl)-2-fluorocyclopropane-1-carboxamide] is under 100 nM; for `CC(=O)NC(C)c1c(F)c(Cl)c(-c2ccc3nc(NC(=O)[C@@H]4C[C@@H]4F)cn3c2)c2cn[nH]c12` (stereo partly drawn) [Example 417, (1S,2S)-N-(6-(7-(1-acetamidoethyl)-5-chloro-6-fluoro-1H-indazol-4-yl)imidazo[1,2-a]pyridin-2-yl)-2-fluorocyclopropane-1-carboxamide] it is under 100 nM; for `CC(Nc1c(F)c(Cl)c(-c2ccc3nc(NC(=O)[C@@H]4C[C@@H]4F)cn3c2)c2cn[nH]c12)C1CC1` (stereo partly drawn) [Example 420, (1S,2S)-N-(6-(5-chloro-7-((1-cyclopropylethyl)amino)-6-fluoro-1H-indazol-4-yl)imidazo[1,2-a]pyridin-2-yl)-2-fluorocyclopropane-1-carboxamide] it is under 100 nM. With `O=C(Nc1cn2cc(-c3c(Cl)c(F)c(NCC4CC4)c4[nH]ncc34)ccc2n1)[C@@H]1C[C@@H]1F` [Example 421, (1S,2S)-N-(6-(5-chloro-7-((cyclopropylmethyl)amino)-6-fluoro-1H-indazol-4-yl)imidazo[1,2-a]pyridin-2-yl)-2-fluorocyclopropane-1-carboxamide] the figure was under 100 nM. The figure for `COC[C@H](C)c1c(F)c(Cl)c(-c2ccc3nc(NC(=O)[C@@H]4C[C@@H]4F)cn3c2)c2cn[nH]c12` [Example 422, (1S,2S)-N-(6-(5-chloro-6-fluoro-7-((R)-1-methoxypropan-2-yl)-1H-indazol-4-yl)imidazo[1,2-a]pyridin-2-yl)-2-fluorocyclopropane-1-carboxamide] is under 100 nM. For `COC[C@@H](C)c1c(F)c(Cl)c(-c2ccc3nc(NC(=O)[C@@H]4C[C@@H]4F)cn3c2)c2cn[nH]c12` [Example 423, (1S,2S)-N-(6-(5-chloro-6-fluoro-7-((S)-1-methoxypropan-2-yl)-1H-indazol-4-yl)imidazo[1,2-a]pyridin-2-yl)-2-fluorocyclopropane-1-carboxamide], the IC50 is under 100 nM. As to `CCC(=O)NC(C)c1c(F)c(Cl)c(-c2ccc3nc(NC(=O)[C@@H]4C[C@@H]4F)cn3c2)c2cn[nH]c12` (stereo partly drawn) [Example 424, (1S,2S)-N-(6-(5-chloro-6-fluoro-7-(1-propionamidoethyl)-1H-indazol-4-yl)imidazo[1,2-a]pyridin-2-yl)-2-fluorocyclopropane-1-carboxamide], the half-maximal inhibitory concentration (IC50) is under 100 nM. With `CC(Nc1c(F)c(Cl)c(-c2ccc3nc(NC(=O)[C@@H]4C[C@@H]4F)cn3c2)c2cn[nH]c12)C(F)F` (stereo partly drawn) [Example 425, (1S,2S)-N-(6-(5-chloro-7-((1,1-difluoropropan-2-yl)amino)-6-fluoro-1H-indazol-4-yl)imidazo[1,2-a]pyridin-2-yl)-2-fluorocyclopropane-1-carboxamide] the figure was under 100 nM; with `CC(NC=O)c1c(F)c(Cl)c(-c2ccc3nc(NC(=O)[C@@H]4C[C@@H]4F)cn3c2)c2cn[nH]c12` (stereo partly drawn) [Example 426, (1S,2S)-N-(6-(5-chloro-6-fluoro-7-(1-formamidoethyl)-1H-indazol-4-yl)imidazo[1,2-a]pyridin-2-yl)-2-fluorocyclopropane-1-carboxamide], under 100 nM. The figure for `CC(NC1COC1)c1c(F)c(Cl)c(-c2ccc3nc(NC(=O)[C@@H]4C[C@@H]4F)cn3c2)c2cn[nH]c12` (stereo partly drawn) [Example 427, (1S,2S)-N-(6-(5-chloro-6-fluoro-7-(1-(oxetan-3-ylamino)ethyl)-1H-indazol-4-yl)imidazo[1,2-a]pyridin-2-yl)-2-fluorocyclopropane-1-carboxamide] is under 100 nM; for `CC(NC(=O)C(F)(F)F)c1c(F)c(Cl)c(-c2ccc3nc(NC(=O)[C@@H]4C[C@@H]4F)cn3c2)c2cn[nH]c12` (stereo partly drawn) [Example 428, (1S,2S)-N-(6-(5-chloro-6-fluoro-7-(1-(2,2,2-trifluoroacetamido)ethyl)-1H-indazol-4-yl)imidazo[1,2-a]pyridin-2-yl)-2-fluorocyclopropane-1-carboxamide] it is under 100 nM. With `CC(NC1(C#N)CC1)c1c(F)c(Cl)c(-c2ccc3nc(NC(=O)[C@@H]4C[C@@H]4F)cn3c2)c2cn[nH]c12` (stereo partly drawn) [Example 429, (1S,2S)-N-(6-(5-chloro-7-(1-((1-cyanocyclopropyl)amino)ethyl)-6-fluoro-1H-indazol-4-yl)imidazo[1,2-a]pyridin-2-yl)-2-fluorocyclopropane-1-carboxamide] the figure was under 100 nM; with `CC(NC(=O)C1CCC1)c1c(F)c(Cl)c(-c2ccc3nc(NC(=O)[C@@H]4C[C@@H]4F)cn3c2)c2cn[nH]c12` (stereo partly drawn) [Example 430, N-(1-(5-chloro-6-fluoro-4-(2-((1S,2S)-2-fluorocyclopropane-1-carboxamido)imidazo[1,2-a]pyridin-6-yl)-1H-indazol-7-yl)ethyl)cyclobutanecarboxamide], under 100 nM.

On to `O=C(Nc1cn2cc(-c3c(Cl)c(F)c(-c4cnc[nH]4)c4[nH]ncc34)ccc2n1)[C@@H]1C[C@@H]1F` [Example 431, (1S,2S)-N-(6-(5-chloro-6-fluoro-7-(1H-imidazol-5-yl)-1H-indazol-4-yl)imidazo[1,2-a]pyridin-2-yl)-2-fluorocyclopropane-1-carboxamide], for which the IC50 lay in the range of 101 to 500 nM. On to `CNC(=O)C(C)c1c(F)c(Cl)c(-c2ccc3nc(NC(=O)[C@@H]4C[C@@H]4F)cn3c2)c2cn[nH]c12` (stereo partly drawn) [Example 433, (1S,2S)-N-(6-(5-chloro-6-fluoro-7-(1-(methylamino)-1-oxopropan-2-yl)-1H-indazol-4-yl)imidazo[1,2-a]pyridin-2-yl)-2-fluorocyclopropane-1-carboxamide], for which the 50% inhibitory concentration (IC50) is under 100 nM. With `CNC(=O)N(C)c1c(F)c(Cl)c(-c2ccc3nc(NC(=O)[C@@H]4C[C@@H]4F)cn3c2)c2cn[nH]c12` [Example 435, (1S,2S)-N-(6-(5-chloro-7-(1,3-dimethylureido)-6-fluoro-1H-indazol-4-yl)imidazo[1,2-a]pyridin-2-yl)-2-fluorocyclopropane-1-carboxamide] the figure was under 100 nM. As for `CO[C@H](C)[C@@H](OC)c1c(F)c(Cl)c(-c2ccc3nc(NC(=O)[C@@H]4C[C@@H]4F)cn3c2)c2cn[nH]c12` [Example 440, (1S,2S)-N-(6-(5-chloro-7-((1S,2R)-1,2-dimethoxypropyl)-6-fluoro-1H-indazol-4-yl)imidazo[1,2-a]pyridin-2-yl)-2-fluorocyclopropane-1-carboxamide], the IC50 was under 100 nM. For `CC(NC(=O)C(F)F)c1c(F)c(Cl)c(-c2ccc3nc(NC(=O)[C@@H]4C[C@@H]4F)cn3c2)c2cn[nH]c12` (stereo partly drawn) [Example 441, (1S,2S)-N-(6-(5-chloro-7-(1-(2,2-difluoroacetamido)ethyl)-6-fluoro-1H-indazol-4-yl)imidazo[1,2-a]pyridin-2-yl)-2-fluorocyclopropane-1-carboxamide], the IC50 was under 100 nM. With `Cc1ncc(-c2c(F)c(Cl)c(-c3ccc4nc(NC(=O)[C@@H]5C[C@@H]5F)cn4c3)c3cn[nH]c23)[nH]1` [Example 442, (1S,2S)-N-(6-(5-chloro-6-fluoro-7-(2-methyl-1H-imidazol-5-yl)-1H-indazol-4-yl)imidazo[1,2-a]pyridin-2-yl)-2-fluorocyclopropane-1-carboxamide] the figure was under 100 nM. The figure for `CC(c1c(F)c(Cl)c(-c2ccc3nc(NC(=O)[C@@H]4C[C@@H]4F)cn3c2)c2cn[nH]c12)[S+](C)[O-]` (stereo partly drawn) [Example 443, (1S,2S)-N-(6-(5-chloro-6-fluoro-7-(1-(methylsulflnyl)ethyl)-1H-indazol-4-yl)imidazo[1,2-a]pyridin-2-yl)-2-fluorocyclopropane-1-carboxamide] is under 100 nM; for `CC(c1c(F)c(Cl)c(-c2ccc3nc(NC(=O)[C@@H]4C[C@@H]4F)cn3c2)c2cn[nH]c12)S(C)(=O)=O` (stereo partly drawn) [Example 444, (1S,2S)-N-(6-(5-chloro-6-fluoro-7-(1-(methylsulfonyl)ethyl)-1H-indazol-4-yl)imidazo[1,2-a]pyridin-2-yl)-2-fluorocyclopropane-1-carboxamide] it is under 100 nM; for `CCNC(=O)C(C)c1c(F)c(Cl)c(-c2ccc3nc(NC(=O)[C@@H]4C[C@@H]4F)cn3c2)c2cn[nH]c12` (stereo partly drawn) [Example 445, (1S,2S)-N-(6-(5-chloro-7-(1-(ethylamino)-1-oxopropan-2-yl)-6-fluoro-1H-indazol-4-yl)imidazo[1,2-a]pyridin-2-yl)-2-fluorocyclopropane-1-carboxamide] it is under 100 nM.
